Measured values: patent US20230357269A1 (LES LABORATOIRES SERVIER, priority 2020, published 2023)
pIC50: −log10 of the molar value.

Target: human recombinant LRRK2 protein (Homo sapiens (Human), UniProt Q5S007)
Experiment: LRRK2 Kinase Activity Assay (ADP-Glo)
Assay type: biochemical
Details: LRRK2 wt; LRRKtide peptide and ATP substrates; 1h-incubation at 37° C.
Procedure: LRRK2 Kinase reactions were carried out in 384-well white polystyrene plates in a final volume of 6 μl using ADP-Glo™ Kinase Assay kit (Promega Corp.). Compound and substrates (LRRKtide peptide and ATP) in assay buffer were first dispensed in wells. Kinase reaction was then started by the addition of human recombinant LRRK2 protein. After 1h-incubation at 37° C., the enzymatic reaction was stopped by the addition of 6 μl of ADP-Glo Reagent-1 and an additional 40-minutes incubation at 23° C. (residual ATP depletion). A final 30-minutes incubation after 12 μL reagent-2 addition (ADP to ATP conversion and luciferin/luciferase reaction) was performed before luminescent signal acquisition (EnVision™ multimode plate reader-PerkinElmer, Inc.). Data from 10 individual concentrations of tested compounds (N=2) were fitted (XLfit™-ID Business Solutions Ltd) to deliver IC50s (compound concentration leading to 50% inhibition of reference enzymatic activity).
The compounds are dissolved to 5 mM in DMSO. When needed, solutions are sonicated in a bath sonicator.
Table 2 provides the IC50 values of the compounds according to the invention, obtained using the above-mentioned kinase assay. Activities are represented as +++, ++ and +, having the following meanings: • +++ means IC50<10 nM • ++ means 10 nM≤IC50<100 nM • + means 100 nM≤IC50<1 μM.

Chain of human recombinant LRRK2 protein (Q5S007 whole entry): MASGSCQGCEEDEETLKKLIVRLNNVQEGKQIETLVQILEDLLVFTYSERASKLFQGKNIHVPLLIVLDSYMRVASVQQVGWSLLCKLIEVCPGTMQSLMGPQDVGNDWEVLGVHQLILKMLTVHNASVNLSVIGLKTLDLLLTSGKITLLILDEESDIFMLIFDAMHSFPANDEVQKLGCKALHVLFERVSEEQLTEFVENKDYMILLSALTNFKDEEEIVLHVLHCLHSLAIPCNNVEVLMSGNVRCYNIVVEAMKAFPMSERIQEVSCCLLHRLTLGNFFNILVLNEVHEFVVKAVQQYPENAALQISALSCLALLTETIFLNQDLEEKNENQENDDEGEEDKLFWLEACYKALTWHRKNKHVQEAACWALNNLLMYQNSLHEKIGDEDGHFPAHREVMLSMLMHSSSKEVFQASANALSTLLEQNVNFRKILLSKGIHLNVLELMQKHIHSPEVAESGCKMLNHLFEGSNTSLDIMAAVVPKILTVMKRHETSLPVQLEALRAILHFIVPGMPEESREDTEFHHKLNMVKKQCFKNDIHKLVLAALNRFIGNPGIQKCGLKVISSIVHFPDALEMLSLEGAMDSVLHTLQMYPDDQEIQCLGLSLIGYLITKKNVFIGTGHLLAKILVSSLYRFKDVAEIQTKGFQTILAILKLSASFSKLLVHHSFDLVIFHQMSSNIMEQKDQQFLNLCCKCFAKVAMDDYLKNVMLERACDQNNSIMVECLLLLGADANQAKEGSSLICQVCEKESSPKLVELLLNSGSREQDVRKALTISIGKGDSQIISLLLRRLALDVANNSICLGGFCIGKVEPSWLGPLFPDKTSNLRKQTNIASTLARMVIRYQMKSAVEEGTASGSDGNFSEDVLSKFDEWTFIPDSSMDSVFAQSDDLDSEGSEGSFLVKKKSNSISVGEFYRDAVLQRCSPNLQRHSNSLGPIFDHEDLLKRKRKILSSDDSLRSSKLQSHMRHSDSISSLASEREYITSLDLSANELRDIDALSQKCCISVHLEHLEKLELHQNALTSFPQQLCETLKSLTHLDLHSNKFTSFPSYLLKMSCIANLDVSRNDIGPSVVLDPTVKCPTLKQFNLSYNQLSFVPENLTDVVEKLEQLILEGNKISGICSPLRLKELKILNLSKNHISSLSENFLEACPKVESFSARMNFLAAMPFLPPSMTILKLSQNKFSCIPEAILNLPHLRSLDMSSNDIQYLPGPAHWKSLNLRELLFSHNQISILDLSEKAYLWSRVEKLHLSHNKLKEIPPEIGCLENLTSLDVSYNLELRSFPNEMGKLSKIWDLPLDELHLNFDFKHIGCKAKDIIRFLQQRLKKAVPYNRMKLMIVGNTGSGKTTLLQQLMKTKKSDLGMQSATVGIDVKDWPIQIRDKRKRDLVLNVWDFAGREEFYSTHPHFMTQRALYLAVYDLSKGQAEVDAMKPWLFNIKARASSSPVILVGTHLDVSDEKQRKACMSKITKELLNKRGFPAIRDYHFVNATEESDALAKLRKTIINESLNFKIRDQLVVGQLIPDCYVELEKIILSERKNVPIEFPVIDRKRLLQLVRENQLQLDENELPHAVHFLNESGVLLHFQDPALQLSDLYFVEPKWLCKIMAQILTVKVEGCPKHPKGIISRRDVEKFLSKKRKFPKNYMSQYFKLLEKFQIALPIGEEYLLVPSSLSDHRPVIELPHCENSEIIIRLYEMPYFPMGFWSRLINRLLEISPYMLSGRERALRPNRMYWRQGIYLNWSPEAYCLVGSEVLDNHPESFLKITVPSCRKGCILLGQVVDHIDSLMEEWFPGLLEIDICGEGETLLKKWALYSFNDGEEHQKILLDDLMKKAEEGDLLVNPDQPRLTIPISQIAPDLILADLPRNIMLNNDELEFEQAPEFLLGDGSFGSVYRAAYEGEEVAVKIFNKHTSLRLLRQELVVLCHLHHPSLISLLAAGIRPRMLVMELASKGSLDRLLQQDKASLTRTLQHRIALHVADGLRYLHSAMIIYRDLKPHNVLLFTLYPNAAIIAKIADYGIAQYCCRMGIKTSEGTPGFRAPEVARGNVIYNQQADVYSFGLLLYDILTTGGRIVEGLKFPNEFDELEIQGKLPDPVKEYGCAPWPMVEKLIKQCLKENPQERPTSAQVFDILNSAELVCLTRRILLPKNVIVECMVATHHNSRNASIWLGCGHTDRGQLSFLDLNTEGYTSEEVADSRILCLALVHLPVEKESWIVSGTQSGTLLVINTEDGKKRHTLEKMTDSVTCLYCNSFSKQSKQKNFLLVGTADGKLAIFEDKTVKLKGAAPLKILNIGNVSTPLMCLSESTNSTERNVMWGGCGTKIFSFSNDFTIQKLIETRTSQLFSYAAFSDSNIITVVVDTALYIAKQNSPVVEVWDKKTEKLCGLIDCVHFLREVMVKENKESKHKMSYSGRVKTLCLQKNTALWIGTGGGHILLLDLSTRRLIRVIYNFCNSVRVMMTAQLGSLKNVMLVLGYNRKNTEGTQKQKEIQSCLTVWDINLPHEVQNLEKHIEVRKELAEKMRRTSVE

## COCCN1CCN(c2cc3cc(c2)-c2n[nH]c4ccc(cc24)OCCCNC(=O)OC3)CC1 [Example 46, 4-[4-(2-methoxyethyl)piperazin-1-yl]-8,14-dioxa-10,19,20-triazatetracyclo[13.5.2.1^2,6.0^18,21]tricosa-1(20),2,4,6(23),15,17,21-heptaen-9-one]
  pIC50: > 8.00

## O=C1NCCCOc2ccc3[nH]nc(c3c2)C2=CN=C(CCO1)S2 [Example 149, 8,14-dioxa-23-thia-4,10,19,20-tetraazatetracyclo[13.5.2.1^2,5.0^18,21]tricosa-1(20),2,4,15(22),16,18(21)-hexaen-9-one]
  pIC50: > 8.00

## C[C@@H]1CCNC(=O)OCc2cccc(c2)-c2n[nH]c3cnc(cc23)O1 [Example 162, (13R)-13-methyl-8,14-dioxa-10,16,19,20-tetraazatetracyclo[13.5.2.1^2,6.0^18,21]tricosa-1(20),2(23),3,5,15(22),16,18(21)-heptaen-9-one]
  pIC50: > 8.00

## O=C1NCCCOc2ccc3[nH]nc(c3c2)-c2ccc(F)c(c2)CO1 [Example 10, 5-fluoro-8,14-dioxa-10,19,20-triazatetracyclo[13.5.2.1^2,6.0^18,21]tricosa-1(20), 2,4,6(23),15,17,21-heptaen-9-one]
  pIC50: > 8.00

## O=C1NCCCOc2ccc3[nH]nc(c3c2)-c2nc(cs2)CCO1 [Example 135, 8,14-dioxa-3-thia-10,19,20,23-tetraazatetracyclo[13.5.2.1^2,5.0^18,21]tricosa-1(20),2(23),4,15,17,21-hexaen-9-one]
  pIC50: > 8.00

## O=C1NCCCOc2ccc3[nH]nc(c3c2)-c2cnn(c2)C(C2CCOCC2)CO1 (stereo not drawn) [Example 118, 6-(oxan-4-yl)-8,14-dioxa-4,5,10,19,20-pentaazatetracyclo[13.5.2.1^2,5.0^18,21]tricosa-1(20),2(23),3,15,17,21-hexaen-9-one]
  pIC50: 6.00 to 7.00

## O=C1NCCCOc2ccc3[nH]nc(c3c2)-c2cc(Cl)cc(c2)CO1 [Example 27, 4-chloro-8,14-dioxa-10,19,20-triazatetracyclo[13.5.2.1^2,6.0^18,21]tricosa-1(20), 2,4,6(23),15,17,21-heptaen-9-one]
  pIC50: > 8.00

## O=C1NCCCOc2ccc3[nH]nc(c3c2)-c2ccnc(c2)CO1 [Example 7, 8,14-dioxa-5,10,19,20-tetraazatetracyclo[13.5.2.1^2,6.0^18,21]tricosa-1(20),2,4, 6(23),15,17,21-heptaen-9-one]
  pIC50: > 8.00

## O=C1NCCCOc2ccc3[nH]nc(c3c2)-c2ccn(n2)CCO1 [Example 84, 8,14-dioxa-5,10,19,20,23-pentaazatetracyclo[13.5.2.1^2,5.0^18,21]tricosa-1(20),2(23),3,15(22),16,18(21)-hexaen-9-one]
  pIC50: 7.00 to 8.00

## CN1CCN(c2cc3cc(c2)-c2n[nH]c4ccc(cc24)OCCCNC(=O)OC3)CC1 [Example 31, 4-(4-methylpiperazin-1-yl)-8,14-dioxa-10,19,20-triazatetracyclo[13.5.2.1^2,6.0^18,21]tricosa-1(20),2,4,6(23),15,17,21-heptaen-9-one]
  pIC50: > 8.00

## O=C1NC[C@@H](F)COc2ccc3[nH]nc(c3c2)-c2cnn(n2)CCO1 [Example 174, (12R)-12-fluoro-8,14-dioxa-4,5,10,19,20,23-hexaazatetracyclo[13.5.2.1^2,5.0^18,21]tricosa-1(20),2(23),3,15,17,21-hexaen-9-one]
  pIC50: > 8.00

## C[C@@H]1CCNC(=O)OCc2ccnc(n2)-c2n[nH]c3ccc(cc23)O1 [Example 140, (13R)-13-methyl-8,14-dioxa-3,10,19,20,23-pentaazatetracyclo[13.5.2.1^2,6.0^18,21]tricosa-1(20),2,4,6(23),15,17,21-heptaen-9-one]
  pIC50: 7.00 to 8.00

## C#Cc1cc2cc(c1)-c1n[nH]c3ccc(cc13)OCCCNC(=O)OC2 [Example 80, 4-ethynyl-8,14-dioxa-10,19,20-triazatetracyclo[13.5.2.1^2,6.0^18,21]tricosa-1(20),2(23),3,5,15(22),16,18(21)-heptaen-9-one]
  pIC50: > 8.00

## CC1COC(=O)NCCCOc2ccc3[nH]nc(c3c2)-c2cnn1c2 (stereo not drawn) [Example 110, 6-methyl-8,14-dioxa-4,5,10,19,20-pentaazatetracyclo[13.5.2.1^2,5.0^18,21]tricosa-1(20),2(23),3,15,17,21-hexaen-9-one]
  pIC50: > 8.00

## O=C1NC[C@H](F)COc2ccc3[nH]nc(c3c2)-c2cccc(c2)CO1 [Example 169, (12S)-12-fluoro-8,14-dioxa-10,19,20-triazatetracyclo[13.5.2.1^2,6.0^18,21]tricosa-1(20),2(23),3,5,15(22),16,18(21)-heptaen-9-one]
  pIC50: > 8.00

## C[C@@H]1CCNC(=O)O[C@@H](C)c2cncc(n2)-c2n[nH]c3ccc(cc23)O1 [Example 154, (7S,13R)-7,13-dimethyl-8,14-dioxa-4,10,19,20,23-pentaazatetracyclo[13.5.2.1^2,6.0^18,21]tricosa-1(20),2(23),3,5,15(22),16,18(21)-heptaen-9-one]
  pIC50: 7.00 to 8.00

## COc1c(F)cc2cc1C(C)OC(=O)NCCCOc1ccc3[nH]nc-2c3c1 (stereo not drawn) [Example 89, 4-fluoro-5-methoxy-7-methyl-8,14-dioxa-10,19,20-triazatetracyclo[13.5.2.1^2,6.0^18,21]tricosa-1(20),2(23),3,5,15(22),16,18(21)-heptaen-9-one]
  pIC50: 6.00 to 7.00

## CC1CNC(=O)OCc2cccc(c2)-c2n[nH]c3ccc(cc23)OC1 (stereo not drawn) [Example 86, 12-methyl-8,14-dioxa-10,19,20-triazatetracyclo[13.5.2.1^2,6.0^18,21]tricosa-1(20),2(23),3,5,15(22),16,18(21)-heptaen-9-one]
  pIC50: > 8.00

## O=C1NC[C@H](F)COc2ccc3[nH]nc(c3c2)-c2cncc(n2)CO1 [Example 171, (12S)-12-fluoro-8,14-dioxa-4,10,19,20,23-pentaazatetracyclo[13.5.2.1^2,6.0^18,21]tricosa-1(20),2(23),3,5,15,17,21-heptaen-9-one]
  pIC50: > 8.00

## C[C@@H]1CCNC(=O)OCc2cccc(c2)-c2n[nH]c3cc(F)c(cc23)O1 [Example 132, (13R)-16-fluoro-13-methyl-8,14-dioxa-10,19,20-triazatetracyclo[13.5.2.1^2,6.0^18,21]tricosa-1(20),2,4,6(23),15,17,21-heptaen-9-one]
  pIC50: > 8.00

## C[C@@H]1CCNC(=O)O[C@H](C)c2cc(F)cc(c2)-c2n[nH]c3ccc(cc23)O1 [Example 106, (7R,13R)-4-fluoro-7,13-dimethyl-8,14-dioxa-10,19,20-triazatetracyclo[13.5.2.1^2,6.0^18,21]tricosa-1(20),2,4,6(23),15,17,21-heptaen-9-one]
  pIC50: > 8.00

## CCC1OC(=O)NCCCOc2ccc3[nH]nc(c3c2)-c2cccc1c2 (stereo not drawn) [Example 104, 7-ethyl-8,14-dioxa-10,19,20-triazatetracyclo[13.5.2.1^2,6.0^18,21]tricosa-1(20),2,4,6(23),15,17,21-heptaen-9-one]
  pIC50: 7.00 to 8.00

## CCC1OC(=O)NCCCOc2ccc3[nH]nc(c3c2)-c2cccc1c2 (single isomer, unassigned) [Example 116, (7R)- or (7S)-7-ethyl-8,14-dioxa-10,19,20-triazatetracyclo[13.5.2.1^2,6.0^18,21]tricosa-1(20),2,4,6(23),15,17,21-heptaen-9-one]
  pIC50: > 8.00

## O=C1NCCCOc2ccc3[nH]nc(c3c2)-c2cc(cc(N3CCN(C4COC4)CC3)c2)CO1 [Example 15, 4-[4-(oxetan-3-yl)piperazin-1-yl]-8,14-dioxa-10,19,20-triazatetracyclo[13.5.2.1^2,6.0^18,21]tricosa-1(20),2,4,6(23),15,17,21-heptaen-9-one]
  pIC50: > 8.00
